Reference: paper PMC5889738 (Biomaterials, 2018)

Test system: OCI-AML2 cells
Assay: flow cytometry of apoptosis and live-dead cell staining
Format: cell-based, human
Details: OCI-AML2, 6 μM, 48 h

With `COc1ccc(C2=N[C@@H](c3ccc(Cl)cc3)[C@@H](c3ccc(Cl)cc3)N2C(=O)N2CCNC(=O)C2)c(OC(C)C)c1` [Nutlin-3] the “apoptosis / sensitivity of OCI-AML2” value was “significantly less sensitive”.
